According to patent US20050014744A1, “Benzothiazine and benzothiadiazine compounds” (priority 2001, published 2005):
Read-outs that look alike come from different tables or passages of the source.

System: AMPA receptors
Assay: Excitatory fluxes induced by AMPA in Xenopus oocytes (2-electrode voltage-clamp)
Assay type: cell-based
Settings: Xenopus oocytes injected with rat cerebral cortex poly-(A+) mRNA, AMPA 10 μM, 20 to 24° C., OR2 medium
Method: Study of the Excitatory Fluxes Induced By AMPA in Xenopus oocytes
mRNAs are prepared from cerebral cortex of male Wistar rat by the guanidinium thiocyanate/phenol/chloroform method. The poly-(A^+) mRNAs are isolated by chromatography on oligo-dT cellulose and injected in an amount of 50 ng per oocyte. The oocytes are left to incubate for 2 to 3 days at 18° C. to allow expression of the receptors and are then stored at from 8 to 10° C.
Electrophysiological recording is carried out in a Plexiglass® chamber at from 20 to 24° C. in OR2 medium (J. Exp. Zool., 1973, 184, 321-334) by the 2-electrode “voltage-clamp” method, a 3rd electrode being placed in the bath to serve as reference.
All the compounds are administered via the incubation medium and the electric current is measured at the end of the period of administration. AMPA is used at a concentration of 10 μM. For each compound studied, the concentration that doubles (EC2X) or quintuples (EC5X) the intensity of the current induced by AMPA alone (5 to 50 nA) is determined.

Structure (SMILES): O=C(Oc1ccc2c(c1)S(=O)(=O)NCC2)c1ccccc1 [Example 2, 1,1-Dioxido-3,4-dihydro-2H-1,2-benzothiazin-7-yl Benzoate]
- Concentration that doubles (EC2X) or quintuples (EC5X) the AMPA-induced current (read-out: EC2X (concentration that doubles the intensity of the current induced by AMPA alone)): 11.9 µM
- Concentration that doubles (EC2X) or quintuples (EC5X) the AMPA-induced current (read-out: EC5X (concentration that quintuples the intensity of the current induced by AMPA alone)): 49.3 µM
